For assay [1], the target named is T1, NPC2 (Homo sapiens, UniProt P61916).
T1 construct: endogenous, A549 cells
T1 sequence (P61916 20-151): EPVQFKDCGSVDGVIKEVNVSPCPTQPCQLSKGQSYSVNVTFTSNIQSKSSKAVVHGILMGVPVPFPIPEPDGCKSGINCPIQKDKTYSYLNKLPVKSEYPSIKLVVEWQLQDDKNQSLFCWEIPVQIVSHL
In words: competition (chase) of CQ-X photo-cross-linking in cells. In kind it is cell-based.

Assay [2] concerns the target T2, Cathepsin L (CTSL) (Homo sapiens, UniProt P07711).
T2 construct: commercial purified CTSL (BPS Biosciences kit); CTSL-Flag-Myc purified from HEK-293T for intrinsic fluorescence
In words: Z-FR-AMC fluorogenic cleavage assay, pH […]; supported by intrinsic fluorescence of CTSL-Flag and CQ-X chase. In kind it is biochemical.

T2 sequence (P07711 114-288): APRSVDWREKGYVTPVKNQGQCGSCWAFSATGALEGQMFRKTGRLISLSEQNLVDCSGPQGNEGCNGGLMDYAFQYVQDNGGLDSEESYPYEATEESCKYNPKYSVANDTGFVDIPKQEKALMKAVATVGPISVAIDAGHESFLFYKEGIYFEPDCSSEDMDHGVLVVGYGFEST
T2 sequence (P07711 292-333): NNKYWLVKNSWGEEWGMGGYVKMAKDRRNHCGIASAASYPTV

A word on the IC50: it is the midpoint of a concentration-inhibition curve. A low value points to inhibition by little substance. As for `CCN(CC)CCCC(C)Nc1ccnc2cc(Cl)ccc12` (centres unmarked) [CQ, chloroquine], the “competition (chase) of CQ-X photo-cross-linking in cells” value in assay [1] was “The results confirmed that chloroquine could bind to NPC2 and CTSL”. Besides, half-maximal inhibition in assay [2] (IC50) required 181 µM.

These data come from PMC10214525, “A Turn-On Fluorescent Amino Acid Sensor Reveals Chloroquine’s Effect on Cellular Amino Acids via Inhibiting Cathepsin L” (ACS Central Science, 2023).
